± gives the expanded uncertainty stated by the source.
Assay: activity coefficient (dimensionless); of the first substance listed, at infinite dilution; xn = mol fraction of the nth substance listed
Conditions: 101.33 kPa, Liquid, Chromatography, x1 = 0

Compound | activity coefficient (318.15 K) | activity coefficient (328.15 K) | activity coefficient (338.15 K) | activity coefficient (348.15 K) | activity coefficient (358.15 K) | activity coefficient (368.15 K) | activity coefficient (378.15 K)
COC(C)=O [methyl ethanoate] + CCCCCCCCCCCC[N+](C)(C)CCOc1ccccc1.O=S(=O)([N-]S(=O)(=O)C(F)(F)F)C(F)(F)F | 0.474 ± 0.037 | 0.503 ± 0.038 | 0.534 ± 0.039 | 0.563 ± 0.04 | 0.595 ± 0.042 | 0.628 ± 0.043 | –
Cc1cccc(C)c1 [1,3-dimethylbenzene] + CCCCCCCCCCCC[N+](C)(C)CCOc1ccccc1.N#C[N-]C#N | – | 1.38 ± 0.09 | 1.44 ± 0.09 | 1.5 ± 0.1 | 1.56 ± 0.1 | 1.61 ± 0.11 | 1.66 ± 0.11
C#CCCCC [1-hexyne] + CCCCCCCCCCCC[N+](C)(C)CCOc1ccccc1.N#C[N-]C#N | – | 1.66 ± 0.11 | 1.74 ± 0.12 | 1.82 ± 0.12 | 1.88 ± 0.13 | 1.95 ± 0.13 | 2.02 ± 0.14
C#CCCCCCC [1-octyne] + CCCCCCCCCCCC[N+](C)(C)CCOc1ccccc1.O=S(=O)([N-]S(=O)(=O)C(F)(F)F)C(F)(F)F | 1.69 ± 0.11 | 1.78 ± 0.12 | 1.86 ± 0.13 | 1.95 ± 0.13 | 2.03 ± 0.14 | 2.12 ± 0.14 | –
CCOCC [diethyl ether] + CCCCCCCCCCCC[N+](C)(C)CCOc1ccccc1.N#C[N-]C#N | – | 2.17 ± 0.15 | 2.22 ± 0.15 | 2.28 ± 0.16 | 2.34 ± 0.16 | 2.39 ± 0.16 | 2.44 ± 0.17
c1ccncc1 [pyridine] + CCCCCCCCCCCC[N+](C)(C)CCOc1ccccc1.N#C[N-]C#N | – | 0.586 ± 0.042 | 0.604 ± 0.042 | 0.622 ± 0.043 | 0.639 ± 0.044 | 0.656 ± 0.045 | 0.673 ± 0.046
CCCC(=O)OC [methyl butanoate] + CCCCCCCCCCCC[N+](C)(C)CCOc1ccccc1.O=S(=O)([N-]S(=O)(=O)C(F)(F)F)C(F)(F)F | 0.565 ± 0.041 | 0.601 ± 0.042 | 0.636 ± 0.044 | 0.672 ± 0.046 | 0.706 ± 0.047 | 0.741 ± 0.049 | –
C=CCCC [1-pentene] + CCCCCCCCCCCC[N+](C)(C)CCOc1ccccc1.O=S(=O)([N-]S(=O)(=O)C(F)(F)F)C(F)(F)F | 1.83 ± 0.12 | 1.88 ± 0.13 | 1.93 ± 0.13 | 1.98 ± 0.13 | 2.03 ± 0.14 | 2.08 ± 0.14 | –
CCCC(=O)OC [methyl butanoate] + CCCCCCCCCCCC[N+](C)(C)CCOc1ccccc1.N#C[N-]C#N | – | 1.29 ± 0.08 | 1.34 ± 0.09 | 1.38 ± 0.09 | 1.42 ± 0.09 | 1.46 ± 0.1 | 1.5 ± 0.1
O [water] + CCCCCCCCCCCC[N+](C)(C)CCOc1ccccc1.N#C[N-]C#N | – | 0.467 ± 0.036 | 0.479 ± 0.037 | 0.489 ± 0.037 | 0.5 ± 0.04 | 0.51 ± 0.038 | 0.52 ± 0.039
C1COCCO1 [1,4-dioxane] + CCCCCCCCCCCC[N+](C)(C)CCOc1ccccc1.O=S(=O)([N-]S(=O)(=O)C(F)(F)F)C(F)(F)F | 0.45 ± 0.036 | 0.483 ± 0.037 | 0.517 ± 0.039 | 0.551 ± 0.04 | 0.584 ± 0.041 | 0.619 ± 0.043 | –
CCOC(C)=O [ethyl acetate] + CCCCCCCCCCCC[N+](C)(C)CCOc1ccccc1.O=S(=O)([N-]S(=O)(=O)C(F)(F)F)C(F)(F)F | 0.505 ± 0.038 | 0.533 ± 0.039 | 0.563 ± 0.04 | 0.592 ± 0.042 | 0.62 ± 0.043 | 0.648 ± 0.044 | –
CCCOCCC [dipropyl ether] + CCCCCCCCCCCC[N+](C)(C)CCOc1ccccc1.N#C[N-]C#N | – | 3.36 ± 0.23 | 3.46 ± 0.24 | 3.54 ± 0.24 | 3.61 ± 0.25 | 3.68 ± 0.25 | 3.76 ± 0.26
CC(C)O [propan-2-ol] + CCCCCCCCCCCC[N+](C)(C)CCOc1ccccc1.N#C[N-]C#N | – | 0.494 ± 0.038 | 0.504 ± 0.038 | 0.512 ± 0.038 | 0.52 ± 0.039 | 0.528 ± 0.039 | 0.535 ± 0.039
c1ccccc1 [benzene] + CCCCCCCCCCCC[N+](C)(C)CCOc1ccccc1.N#C[N-]C#N | – | 0.835 ± 0.054 | 0.87 ± 0.056 | 0.905 ± 0.057 | 0.938 ± 0.059 | 0.972 ± 0.061 | 1.01 ± 0.06
CCC(C)(C)C [2,2-dimethylbutane] + CCCCCCCCCCCC[N+](C)(C)CCOc1ccccc1.O=S(=O)([N-]S(=O)(=O)C(F)(F)F)C(F)(F)F | 2.82 ± 0.19 | 2.91 ± 0.2 | 2.99 ± 0.2 | 3.07 ± 0.21 | 3.15 ± 0.21 | 3.24 ± 0.22 | –

Compound | activity coefficient (318.15 K) | activity coefficient (328.15 K) | activity coefficient (338.15 K) | activity coefficient (348.15 K) | activity coefficient (358.15 K) | activity coefficient (368.15 K) | activity coefficient (378.15 K)
C1CCCCCC1 [cycloheptane] + CCCCCCCCCCCC[N+](C)(C)CCOc1ccccc1.O=S(=O)([N-]S(=O)(=O)C(F)(F)F)C(F)(F)F | 2.26 ± 0.15 | 2.3 ± 0.16 | 2.34 ± 0.16 | 2.37 ± 0.16 | 2.4 ± 0.16 | 2.43 ± 0.17 | –
C#CCCC [1-pentyne] + CCCCCCCCCCCC[N+](C)(C)CCOc1ccccc1.O=S(=O)([N-]S(=O)(=O)C(F)(F)F)C(F)(F)F | 1.07 ± 0.07 | 1.13 ± 0.07 | 1.19 ± 0.08 | 1.25 ± 0.08 | 1.32 ± 0.09 | 1.39 ± 0.09 | –
CCC(=O)OC [methyl propanoate] + CCCCCCCCCCCC[N+](C)(C)CCOc1ccccc1.O=S(=O)([N-]S(=O)(=O)C(F)(F)F)C(F)(F)F | 0.498 ± 0.038 | 0.53 ± 0.039 | 0.566 ± 0.041 | 0.599 ± 0.042 | 0.633 ± 0.044 | 0.669 ± 0.045 | –
CC(C)O [propan-2-ol] + CCCCCCCCCCCC[N+](C)(C)CCOc1ccccc1.O=S(=O)([N-]S(=O)(=O)C(F)(F)F)C(F)(F)F | 1.27 ± 0.08 | 1.22 ± 0.08 | 1.18 ± 0.08 | 1.14 ± 0.07 | 1.11 ± 0.07 | 1.08 ± 0.07 | –
c1ccsc1 [thiophene] + CCCCCCCCCCCC[N+](C)(C)CCOc1ccccc1.O=S(=O)([N-]S(=O)(=O)C(F)(F)F)C(F)(F)F | 0.534 ± 0.039 | 0.562 ± 0.04 | 0.591 ± 0.042 | 0.62 ± 0.043 | 0.649 ± 0.044 | 0.68 ± 0.046 | –
C#CCCCCC [1-heptyne] + CCCCCCCCCCCC[N+](C)(C)CCOc1ccccc1.O=S(=O)([N-]S(=O)(=O)C(F)(F)F)C(F)(F)F | 1.45 ± 0.1 | 1.53 ± 0.1 | 1.61 ± 0.11 | 1.68 ± 0.11 | 1.75 ± 0.12 | 1.83 ± 0.12 | –
C=CCCCCCCCC [1-decene] + CCCCCCCCCCCC[N+](C)(C)CCOc1ccccc1.N#C[N-]C#N | – | 6.45 ± 0.44 | 6.67 ± 0.45 | 6.83 ± 0.47 | 6.99 ± 0.48 | 7.14 ± 0.49 | 7.22 ± 0.49
CCC(=O)CC [pentan-3-one] + CCCCCCCCCCCC[N+](C)(C)CCOc1ccccc1.O=S(=O)([N-]S(=O)(=O)C(F)(F)F)C(F)(F)F | 0.387 ± 0.034 | 0.412 ± 0.034 | 0.437 ± 0.035 | 0.462 ± 0.036 | 0.486 ± 0.037 | 0.511 ± 0.038 | –
CCC[N+](=O)[O-] [1-nitropropane] + CCCCCCCCCCCC[N+](C)(C)CCOc1ccccc1.N#C[N-]C#N | – | 0.83 ± 0.053 | 0.85 ± 0.055 | 0.868 ± 0.055 | 0.886 ± 0.056 | 0.903 ± 0.057 | 0.92 ± 0.058
Cc1ccccc1C [1,2-dimethylbenzene] + CCCCCCCCCCCC[N+](C)(C)CCOc1ccccc1.O=S(=O)([N-]S(=O)(=O)C(F)(F)F)C(F)(F)F | 0.783 ± 0.051 | 0.83 ± 0.053 | 0.874 ± 0.056 | 0.922 ± 0.058 | 0.968 ± 0.061 | 1.01 ± 0.06 | –
CC(C)c1ccccc1 [isopropylbenzene] + CCCCCCCCCCCC[N+](C)(C)CCOc1ccccc1.N#C[N-]C#N | – | 1.82 ± 0.12 | 1.87 ± 0.13 | 1.94 ± 0.13 | 2 ± 0.14 | 2.05 ± 0.14 | 2.11 ± 0.14
C1CCCCCCC1 [cyclooctane] + CCCCCCCCCCCC[N+](C)(C)CCOc1ccccc1.O=S(=O)([N-]S(=O)(=O)C(F)(F)F)C(F)(F)F | 2.57 ± 0.17 | 2.61 ± 0.18 | 2.65 ± 0.18 | 2.68 ± 0.18 | 2.71 ± 0.18 | 2.75 ± 0.19 | –
C1COCCO1 [1,4-dioxane] + CCCCCCCCCCCC[N+](C)(C)CCOc1ccccc1.N#C[N-]C#N | – | 0.76 ± 0.05 | 0.79 ± 0.051 | 0.818 ± 0.053 | 0.846 ± 0.054 | 0.871 ± 0.056 | 0.898 ± 0.057
CCO [ethanol] + CCCCCCCCCCCC[N+](C)(C)CCOc1ccccc1.O=S(=O)([N-]S(=O)(=O)C(F)(F)F)C(F)(F)F | 1.24 ± 0.08 | 1.2 ± 0.08 | 1.16 ± 0.07 | 1.12 ± 0.07 | 1.09 ± 0.07 | 1.06 ± 0.07 | –
CCCC=O [butanal] + CCCCCCCCCCCC[N+](C)(C)CCOc1ccccc1.O=S(=O)([N-]S(=O)(=O)C(F)(F)F)C(F)(F)F | 0.711 ± 0.047 | 0.742 ± 0.049 | 0.777 ± 0.051 | 0.81 ± 0.052 | 0.844 ± 0.054 | 0.876 ± 0.056 | –

Reference: the NIST ThermoML archive (doi:10.1016/j.fluid.2018.09.024)
